Results on 2 compounds are retold here after PMC4164625 (PLoS ONE, 2014).

SMILES strings stand for the structures.

One may read the IC50 as the point on the concentration scale where inhibition reaches its midpoint. As a reminder, the Ki is the dissociation constant of the complex between target and ligand, obtained from inhibition or displacement.

For assay [1], the system named is bacterial Sir2. The conditions noted are these: cited from earlier work.
Assay [2] deals with yeast Sir2. The conditions noted are these: cited from earlier work.
Assay [3] has as its system mouse Sir2. The conditions noted are these: cited from earlier work.
Assay [4] deals with SIRT1. Particulars: cited from earlier work.
Assay [5] relates to SIRT2. Particulars: cited from earlier work.
Assay [6] deals with SIRT5. Particulars: cited from earlier work.
In assay [7] the target is T1, recombinant human SIRT1 (Homo sapiens, UniProt Q96EB6).
T1 sequence (Q96EB6 1-747): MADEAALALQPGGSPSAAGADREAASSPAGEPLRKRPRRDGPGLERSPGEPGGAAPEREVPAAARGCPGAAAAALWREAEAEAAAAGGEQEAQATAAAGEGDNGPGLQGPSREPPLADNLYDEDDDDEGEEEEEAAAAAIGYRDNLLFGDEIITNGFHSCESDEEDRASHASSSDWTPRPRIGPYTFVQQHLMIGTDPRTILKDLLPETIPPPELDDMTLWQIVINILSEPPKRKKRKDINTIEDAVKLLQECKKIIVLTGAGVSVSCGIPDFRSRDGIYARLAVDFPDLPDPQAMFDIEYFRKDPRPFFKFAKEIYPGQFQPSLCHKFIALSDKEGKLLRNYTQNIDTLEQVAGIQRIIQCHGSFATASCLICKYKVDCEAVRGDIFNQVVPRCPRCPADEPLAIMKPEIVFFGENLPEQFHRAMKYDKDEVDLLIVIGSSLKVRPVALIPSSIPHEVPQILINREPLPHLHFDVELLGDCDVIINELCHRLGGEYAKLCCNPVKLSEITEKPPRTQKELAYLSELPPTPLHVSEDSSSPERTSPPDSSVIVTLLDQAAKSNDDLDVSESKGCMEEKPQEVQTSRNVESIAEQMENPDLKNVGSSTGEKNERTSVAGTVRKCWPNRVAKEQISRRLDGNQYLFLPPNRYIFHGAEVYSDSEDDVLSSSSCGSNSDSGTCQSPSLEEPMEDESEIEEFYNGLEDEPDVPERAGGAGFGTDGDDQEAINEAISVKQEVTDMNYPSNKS
Briefly: SIRT1 initial-rate inhibition kinetics against NAD+, global nonlinear fitting (Eq. 1). It is filed as biochemical. Also on record: purchased Enzo Life Sciences AK 555. The text has this:
We utilized a novel deacetylation activity assay that generates a fluorescent signal upon deacetylation of a peptide substrate.
Data are globally nonlinear fitted to base exchange inhibition model (Eq. 1) and shown as a double-reciprocal plot of 1/v versus 1/[NAD^+]. In (C) and (D), the intersection points of the double reciprocal plots are enlarged for SIRT1 and SIRT3, respectively.

Assay [8] deals with T2, recombinant human SIRT3 (Homo sapiens, UniProt Q9NTG7).
T2 sequence (Q9NTG7 1-399): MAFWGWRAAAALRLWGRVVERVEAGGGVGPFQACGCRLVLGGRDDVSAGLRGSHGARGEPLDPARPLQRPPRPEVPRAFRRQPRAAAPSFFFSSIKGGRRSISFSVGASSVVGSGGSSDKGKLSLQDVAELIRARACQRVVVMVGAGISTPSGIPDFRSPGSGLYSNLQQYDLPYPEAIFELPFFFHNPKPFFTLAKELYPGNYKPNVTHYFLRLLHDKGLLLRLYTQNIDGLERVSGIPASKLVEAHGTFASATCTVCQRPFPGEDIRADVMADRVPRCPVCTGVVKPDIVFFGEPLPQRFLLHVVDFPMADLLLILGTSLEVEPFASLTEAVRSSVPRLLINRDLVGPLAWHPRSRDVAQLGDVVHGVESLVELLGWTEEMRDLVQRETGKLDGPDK
Briefly: Fluorometric deacetylation assay, IC50 of NAM and isoNAM for SIRT3. Also on record: purchased Creative BioMart. It is filed as biochemical. Particulars: 90 minutes incubation, 1 mM NAD^+ at 37°C (Methods b105: 100 µM NAD^+).

The target in assay [9] is T1, recombinant human SIRT1. Description: Fluorometric deacetylation assay, IC50 of NAM and isoNAM for SIRT1.
The target of assay [10] is T2, recombinant human SIRT3. Briefly: SIRT3 initial-rate inhibition kinetics against NAD+, global nonlinear fitting (Eq. 1 / Eq. 2).

As to `NC(=O)c1cccnc1` [NAM, nicotinamide], the IC50 in assay [1] is 26 µM; in assay [2], 120 µM; in assay [3], 160 µM; in assay [4] it was 50 µM; in assay [5], […]; in assay [6], 1600 µM. In addition, the “Vmax, model parameter estimate” value in [7] (global nonlinear fit of initial rates with NAM (Eq. 1)) is recorded as 0.863 µM/min. Also, the “Michaelis constant, model parameter estimate” value in assay [7] (global nonlinear fit of initial rates with NAM (Eq. 1), varying NAD^+, saturating peptide, 37°C) is recorded as 168.2 µM. The α in assay [7] (mixed inhibition model, K3≡αK2 (Eq. 1)) is 0.848.
On to `NC(=O)c1ccncc1` [isoNAM, isonicotinamide], for which the values for the IC50 in assay [8] and in assay [9] were 13800 ± 500 µM and 12200 ± 300 µM, respectively. The Ki in [10] (K 2(K i), K2 of Eq. 1 for NAM, Ki of Eq. 2 for isoNAM (in brackets), unit inferred, b71 gives isoNAM Ki≈4.6 mM) is 4620 µM; in assay [10] (Ki, from fitting of Eq. 2, as restated in the Discussion), approximately 4600 µM. In addition, in assay [10] (double reciprocal plot / value of α), the “Inhibition mode with respect to NAD^+” value is “competitive inhibitor”. Also, the “Vmax, model parameter estimate” value in assay [10] (global nonlinear fit of initial rates with the named inhibitor (Eq. 1 for NAM, Eq. 2 for isoNAM)) is given as 0.167 µM/min. Also, the “Michaelis constant, model parameter estimate” value in assay [10] (global nonlinear fit of initial rates with the named inhibitor (Eq. 1 for NAM, Eq. 2 for isoNAM), varying NAD^+, saturating peptide, 37°C) is 1402 µM.
